How the values were obtained:
[1] = test system: panel of experts in the sensory evaluation of foods and beverages; test: Sensory evaluation of sweetness linger and sugar-like taste by expert panel; format: in vivo; settings: scale 0=no sweetness linger to 5=high sweetness linger
Protocol: Sensory evaluation of the samples prepared in Example Set G was carried out under the following protocol, similar to that described hereinabove. In this test protocol, none of the samples were swallowed. All samples were expectorated and the mouth was rinsed with water after the tasting. Immediately upon sensing maximal sweetness, the sample was expectorated, the mouth was rinsed with water and the rate of sweetness decay (“Sweetness Linger”) was measured, where attention was focused on the sweetness 3-4 min after the water rinse. After sample tasting was complete, a salty oyster cracker was chewed followed by a water rinse, and at least 5 minutes followed before tasting the next sample. The sweetness linger was rated by a panel of experts in the sensory evaluation of foods and beverages using the following scale: 0=no sweetness linger, 1=very slight sweetness linger, 2=slight sweetness linger, 3=moderate sweetness linger, 4=moderately high sweetness linger, 5=high sweetness linger.
The “Sweetness Linger” rating for sucrose observed by this protocol is defined as 0. The Sweetness Linger of a 500 ppm of REBA control sample is defined as 5. Experimental samples were tasted by the same protocol, always allowing sufficient time between samples to ensure re-equilibration of the sensory system. Re-tasting of control samples during the course of the experiment was allowed and encouraged.
The comparison taste test was performed between two controls and addition of sweet taste improving additive on the onset and/or sweetness linger.
Sweet taste improving compositions were combined with a REBA solution to determine their effect on sweetness linger. Screening of the initial sample, or further dilutions, allowed identification of concentrations which were just above-threshold, herein defined as “near-threshold concentrations.” The near-threshold additive concentrations, a 6- to 100-fold higher higher additive concentration (depending on the off-taste intensity), and a mid-level additive concentration (halfway between the near-threshold and higher additive concentration) were evaluated to determine the effect on sweetness linger of a REBA solution.
Formulations of a 500 ppm EBA in a phosphoric acid solution (75%) at a pH of 2.5 with phosphoric acid or a pH of 3.1 with citric acid and potassium citrate were prepared prior to the addition of the additives at the three levels of concentration.
Sensory evaluation using the protocol described in Example Set G then was used to evaluate the sweetness linger of the REBA solutions.

[2] = Rate of dissolution of rebaudioside A polymorph and amorphous forms in H2O; format: physicochemical
[3] = Example Set G: citric acid/potassium citrate composition equivalent to diet lemon-lime beverage, 3-4 min after water rinse
[4] = Example Set H: carbon-treated water with phosphoric acid (75%) to pH 2.4-2.5

| Compound | sweetness linger [1, 3] | sweetness linger [1, 4] | Rate of dissolution in H2O at 25° C. [2] |
| --- | --- | --- | --- |
| OC[C@H]1O[C@@](CO)(O[C@H]2O[C@H](CO)[C@@H](O)[C@H](O)[C@H]2O)[C@@H](O)[C@@H]1O [sugar, sucrose] | 0 | 0 | – |
| rebaudioside A | 5 | 5 | – |
| rebaudioside A [Form 1] | – | – | Very low (<0.2%/ %/60 minutes |
